Measurements as given in patent publication US10183938B2, “Geminal substituted quinuclidine amide compounds as agonists of α-7 nicotonic acetylcholine receptors” (AXOVANT SCIENCES GMBH, priority 2014, dated 2019).
Structures can show the parent of a compound that is named as a salt.

Each compound was assayed against human α7 nAChRs transiently expressed in Xenopus laevis oocytes (Homo sapiens (Human), UniProt P36544) (assay: Oocyte electrophysiology screen (TEVC)). Conditions: 0.01 mM test compound, peak current relative to 0.2 mM ACh.
Chain of human α7 nAChRs transiently expressed in Xenopus laevis oocytes (P36544 23-502 limits assumed): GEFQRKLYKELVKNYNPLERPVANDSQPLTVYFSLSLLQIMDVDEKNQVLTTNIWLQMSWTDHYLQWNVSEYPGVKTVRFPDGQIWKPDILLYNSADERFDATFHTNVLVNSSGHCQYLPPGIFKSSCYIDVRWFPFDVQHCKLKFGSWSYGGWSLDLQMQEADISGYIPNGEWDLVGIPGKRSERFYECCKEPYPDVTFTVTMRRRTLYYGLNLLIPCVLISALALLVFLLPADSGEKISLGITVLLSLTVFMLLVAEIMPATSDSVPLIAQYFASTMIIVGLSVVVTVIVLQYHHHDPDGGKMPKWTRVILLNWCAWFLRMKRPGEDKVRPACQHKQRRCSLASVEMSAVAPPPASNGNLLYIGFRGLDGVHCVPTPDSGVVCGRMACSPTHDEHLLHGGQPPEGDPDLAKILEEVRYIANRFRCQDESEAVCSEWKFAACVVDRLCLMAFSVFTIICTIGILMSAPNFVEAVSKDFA
Assay type: cell-based
Outline: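 Peak inward current from 0.01 mM compound, applied 30 s, is expressed relative to a 5 s 0.2 mM ACh reference response, in triplicate. Recordings used two-electrode voltage clamp at −80 mV in Xenopus oocytes with 90 s OR2 washes.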

Structure (SMILES) | % ACh @ 10 μM Oocyte
CS(=O)(=O)c1ccc2cc(C(=O)N[C@@H]3C4CCN(CC4)C34CC4)sc2c1 [(R)-103, (R)-6-(methylsulfonyl)-N-(1′-azaspiro[cyclopropane-1,2′-bicyclo[2.2.2]octan]-3′-yl)benzo[b]thiophene-2-carboxamide hydrochloride] | 2 % ACh
N#Cc1ccc2cc(C(=O)N[C@@H]3C4CCN(CC4)C34CC4)sc2c1 [(R)-104, (R)-6-cyano-N-(1′-azaspiro[cyclopropane-1,2′-bicyclo[2.2.2]octan]-3′-yl)benzo[b]thiophene-2-carboxamide hydrochloride] | 20 % ACh
COc1ccc2cc(C(=O)N[C@@H]3C4CCN(CC4)C3(C)C)sc2c1Cl [(R)-112, (R)-7-chloro-N-(2,2-dimethylquinuclidin-3-yl)-6-methoxybenzo[b]thiophene-2-carboxamide hydrochloride] | 234 % ACh
CC1(C)[C@H](NC(=O)c2cc3cccc(C#N)c3s2)C2CCN1CC2 [(R)-115, (R)-7-cyano-N-(2,2-dimethylquinuclidin-3-yl)benzo[b]thiophene-2-carboxamide hydrochloride] | 215 % ACh
Nc1ncc2cc(C(=O)N[C@@H]3C4CCN(CC4)C34CC4)sc2n1 [(R)-149, (R)-2-amino-N-(1′-azaspiro[cyclopropane-1,2′-bicyclo[2.2.2]octan]-3′-yl) thieno[2,3-d]pyrimidine-6-carboxamide hydrochloride] | 195 % ACh
O=C(N[C@@H]1C2CCN(CC2)C12CC2)c1cc2ccc(F)c(C(F)(F)F)c2s1 [(R)-153, (R)-6-fluoro-N-(1′-azaspiro[cyclopropane-1,2′-bicyclo[2.2.2]octan]-3′-yl)-7-(trifluoromethyl)benzo[b]thiophene-2-carboxamide hydrochloride] | 114 % ACh
O=C(N[C@@H]1C2CCN(CC2)C12CC2)c1cc2cccc(Cl)c2o1 [(R)-164, (R)-7-chloro-N-(1′-azaspiro[cyclopropane-1,2′-bicyclo[2.2.2]octan]-3′-yl)benzofuran-2-carboxamide hydrochloride] | 266 % ACh
Cl.Cn1cnc2ccc(C(=O)N[C@@H]3C4CCN(CC4)C3(C)C)cc21 [(R)-206, (R)-N-(2,2-dimethylquinuclidin-3-yl)-1-methyl-1H-benzo[d]imidazole-6-carboxamide hydrochloride] | 0 % ACh
CC1(C)[C@H](NC(=O)c2cc3ccc(-n4ccnn4)cc3s2)C2CCN1CC2.Cl [(R)-208, (R)-N-(2,2-dimethylquinuclidin-3-yl)-6-(1H-1,2,3-triazol-1-yl)benzo[b]thiophene-2-carboxamide hydrochloride] | 0 % ACh
CC1(C)[C@H](NC(=O)c2cc3ccc(F)c(C(F)(F)F)c3s2)C2CCN1CC2.Cl [(R)-211, (R)-N-(2,2-dimethylquinuclidin-3-yl)-6-fluoro-7-(trifluoromethyl)benzo[b]thiophene-2-carboxamide hydrochloride] | 100 % ACh
CC1(C)[C@H](NC(=O)c2cc3ccc(C4CC4)c(F)c3s2)C2CCN1CC2.Cl [(R)-213, (R)-6-cyclopropyl-N-(2,2-dimethylquinuclidin-3-yl)-7-fluorobenzo[b]thiophene-2-carboxamide hydrochloride] | 60 % ACh
CC1(C)[C@H](NC(=O)c2ccc3c(c2)OCCO3)C2CCN1CC2.Cl [(R)-215, (R)-N-(2,2-dimethylquinuclidin-3-yl)-2,3-dihydrobenzo[b][1,4]dioxine-6-carboxamide hydrochloride] | 86 % ACh
CC1(C)[C@H](NC(=O)c2cc3ccc(Cl)cc3o2)C2CCN1CC2.Cl [(R)-216, (R)-6-chloro-N-(2,2-dimethylquinuclidin-3-yl)benzofuran-2-carboxamide hydrochloride] | 184 % ACh
Cl.Cn1c(C(=O)N[C@@H]2C3CCN(CC3)C2(C)C)cc2ccccc21 [(R)-221, (R)-N-(2,2-dimethylquinuclidin-3-yl)-1-methyl-1H-indole-2-carboxamide hydrochloride] | 188 % ACh
Cl.O=C(N[C@@H]1C2CCN(CC2)C12CC2)c1cc2ccc(OC(F)(F)F)cc2s1 [(R)-248, (R)-N-(1′-azaspiro[cyclopropane-1,2′-bicyclo[2.2.2]octan]-3′-yl)-6-(trifluoromethoxy)benzo[b]thiophene-2-carboxamide hydrochloride] | 1 % ACh
Cl.Cn1c(C(=O)N[C@@H]2C3CCN(CC3)C23CC3)cc2ccccc21 [(R)-254, (R)-1-methyl-N-(1′-azaspiro[cyclopropane-1,2′-bicyclo[2.2.2]octan]-3′-yl)-1H-indole-2-carboxamide hydrochloride] | 447 % ACh
CC1(C)[C@@H](NC(=O)c2cc3cccc(Cl)c3s2)C2CCN1CC2 [(S)-3, (S)-7-chloro-N-(2,2-dimethylquinuclidin-3-yl)benzo[b]thiophene-2-carboxamide hydrochloride] | 22 % ACh
CC1(C)[C@@H](NC(=O)c2cc3cccc(F)c3s2)C2CCN1CC2 [(S)-4, (S)—N-(2,2-dimethylquinuclidin-3-yl)-7-fluoro-benzo[b]thiophene-2-carboxamide hydrochloride] | 17 % ACh

Structure (SMILES) | % ACh @ 10 μM Oocyte
CC1(C)[C@@H](NC(=O)c2ccc3ccsc3c2)C2CCN1CC2 [(S)-5, (S)—N-(2,2-dimethylquinuclidin-3-yl)benzo[b]thiophene-6-carboxamide hydrochloride] | 9 % ACh
CC1(C)[C@@H](NC(=O)c2ccc3occc3c2)C2CCN1CC2 [(S)-6, (S)—N-(2,2-dimethylquinuclidin-3-yl)benzofuran-5-carboxamide hydrochloride] | 2 % ACh
CC1(C)[C@@H](NC(=O)c2cc3cccc(C(F)(F)F)c3s2)C2CCN1CC2 [(S)-7, (S)—N-(2,2-dimethylquinuclidin-3-yl)-7-(trifluoromethyl)benzo[b]thiophene-2-carboxamide hydrochloride] | 2 % ACh
CC1(C)[C@@H](NC(=O)c2cc3ccc(F)cc3s2)C2CCN1CC2 [(S)-8, (S)—N-(2,2-dimethylquinuclidin-3-yl)-6-fluorobenzo[b]thiophene-2-carboxamide hydrochloride] | 1 % ACh
CC1(C)[C@@H](NC(=O)c2cc3ccc(C#N)cc3s2)C2CCN1CC2 [(S)-9, (S)-6-cyano-N-(2,2-dimethylquinuclidin-3-yl)benzo[b]thiophene-2-carboxamide hydrochloride] | 1 % ACh
CC1(C)[C@@H](NC(=O)c2cc3ccc(C(F)(F)F)cc3s2)C2CCN1CC2 [(S)-10, (S)—N-(2,2-dimethylquinuclidin-3-yl)-6-(trifluoromethyl)benzo[b]thiophene-2-carboxamide hydrochloride] | 1 % ACh
CC1(C)[C@@H](NC(=O)c2cc3cc(F)ccc3s2)C2CCN1CC2 [(S)-11, (S)—N-(2,2-dimethylquinuclidin-3-yl)-5-fluorobenzo[b]thiophene-2-carboxamide hydrochloride] | 9 % ACh
CC1(C)[C@@H](NC(=O)c2cc3ccc(Cl)cc3s2)C2CCN1CC2 [(S)-12, (S)-6-chloro-N-(2,2-dimethylquinuclidin-3-yl)benzo[b]thiophene-2-carboxamide hydrochloride] | 3 % ACh
CC1(C)[C@@H](NC(=O)c2cc3cc(Cl)ccc3s2)C2CCN1CC2 [(S)-13, (S)-5-chloro-N-(2,2-dimethylquinuclidin-3-yl)benzo[b]thiophene-2-carboxamide hydrochloride] | 3 % ACh
CC1(C)[C@@H](NC(=O)c2cc3cc(Cl)c(Cl)cc3s2)C2CCN1CC2 [(S)-14, (S)-5,6-dichloro-N-(2,2-dimethylquinuclidin-3-yl)benzo[b]thiophene-2-carboxamide hydrochloride] | 3 % ACh
Cc1ccc2cc(C(=O)N[C@H]3C4CCN(CC4)C3(C)C)sc2c1 [(S)-15, (S)—N-(2,2-dimethylquinuclidin-3-yl)-6-methylbenzo[b]thiophene-2-carboxamide hydrochloride] | 3 % ACh
Cc1ccc2sc(C(=O)N[C@H]3C4CCN(CC4)C3(C)C)cc2c1 [(S)-16, (S)—N-(2,2-dimethylquinuclidin-3-yl)-5-methylbenzo[b]thiophene-2-carboxamide hydrochloride] | 2 % ACh
CC1(C)[C@@H](NC(=O)c2cc3cc(C(F)(F)F)ccc3s2)C2CCN1CC2 [(S)-17, (S)—N-(2,2-dimethylquinuclidin-3-yl)-5-(trifluoromethyl)benzo[b]thiophene-2-carboxamide hydrochloride] | 1 % ACh
CC1(C)[C@@H](NC(=O)c2cc3ccc(C4CC4)cc3s2)C2CCN1CC2 [(S)-18, (S)-6-cyclopropyl-N-(2,2-dimethylquinuclidin-3-yl)benzo[b]thiophene-2-carboxamide hydrochloride] | 1 % ACh
CC1(C)[C@@H](NC(=O)c2cc3cc(C4CC4)ccc3s2)C2CCN1CC2 [(S)-19, (S)-5-cyclopropyl-N-(2,2-dimethylquinuclidin-3-yl)benzo[b]thiophene-2-carboxamide hydrochloride] | 3 % ACh
COc1ccc2cc(C(=O)N[C@H]3C4CCN(CC4)C3(C)C)sc2c1 [(S)-20, (S)—N-(2,2-dimethylquinuclidin-3-yl)-6-methoxybenzo[b]thiophene-2-carboxamide hydrochloride] | 5 % ACh
COc1ccc2sc(C(=O)N[C@H]3C4CCN(CC4)C3(C)C)cc2c1 [(S)-21, (S)—N-(2,2-dimethylquinuclidin-3-yl)-5-methoxybenzo[b]thiophene-2-carboxamide hydrochloride] | 1 % ACh
CC1(C)[C@@H](NC(=O)c2cc3ccoc3cn2)C2CCN1CC2 [(S)-22, (S)—N-(2,2-dimethylquinuclidin-3-yl)furo[2,3-c]pyridine-5-carboxamide hydrochloride] | 25 % ACh
